Source: patent publication US6603046B1, “Bis-aromatic a,β-unsaturated ketones” (Lica Pharmaceuticals A/S, priority 1992, dated 2003)
Values after ≈ are worked out from the molar mass of the structure shown. Like-named read-outs stand apart in the source and are kept apart here.

Assays:
[1] = system: human monocytes/macrophages; test: Electron microscopy of human monocytes/macrophages with and without ingested L. major (Example 12); details: for ultrastructure of macrophage: macrophage alone
Streptococcus pneumonia = test: MIC, macrodilution (Example 17); type: cell-based; details: Streptococcus pneumoniae; 1 strain
human lymphocytes = test: Lymphocyte Proliferation Assay, 3H-thymidine incorporation (Example 13); details: Homo sapiens, Lymphocyte
[2] = Reaction with N-acetyl-L-cysteine, HPLC (Example 26); type: physicochemical; details: 7 days
Method: Formation of N-acetyl-L-cysteine conjugates of licochalcone A. A solution of 1.5 mg of licochalcone A and 100 mg of N-acetyl-L-cysteine in acetonitrile0.13 M aqueous potassium phosphate buffer solution pH 7.5 (1:3) was left for 7 days at ambient temperature protected from light.

M. intracellular = test: Radiometric MIC (Example 19); type: cell-based; details: n=9
Mycobacteria = type: cell-based
[3] = system: L. major amastigotes in U937 cells; test: L. major amastigotes in U937 cells, microscopic counting (Example 7); type: cell-based, Leishmania major
L. major = test: In vivo growth of L. major in BALB/c mice (Example 8); set-up: key to amastigotes findings on the impression smear, Spleen / amastigotes findings on the impression smear, Liver: −: no parasite amastigotes detected in 5 fields of microscopical vision; +: parasite amastigotes from 5 fields of microscopical vision < 100; ++: parasite amastigotes from 5 fields of microscopical vision = 100-500; +++: parasite amastigotes from 5 fields of microscopical vision = 500-1000; details: for parasitic load of the footpad, 3H-thymidine uptake (mean) / parasitic load of the liver, 3H-thymidine uptake (mean): 42 days
Method: Mice. BALB/c female mice aged eight weeks old were used throughout. Parasite. The maintenance, cultivation, and isolation of the promastigote-stage of the parasite L. major (WHO reference vaccine strain) have been described in detail in Example 4. […] The lesions that developed in the footpad were measured with a dial-calliper and expressed as footpad thickness increase (in mm). The footpad thickness of mice was measured before infection and every 3 days after 7 days of infection. From 7 days of infection, mice received licochalcone A injections i.p. or intralesionally once a day. After 42 days of licochalcone A injection, some of the mice were killed and the footpads, spleens and livers removed. The parasite loads in the footpads and livers were estimated by a modification of the method described by Liew et al. 1990. […] Incubation was carried out at 28° C. for 3 days and then pulsed with 1 μCi of ^3H-thymidine. Cultures were harvested 18 h later on filter paper by a cell harvester (Skatron, Lierbyen, Norway), extensively washed with distilled water and counted in a scintillation counter (Minaxi Ti-Carb 4000, United Technologies, Packard, USA). The results were expressed as cpm. The footpads, spleens and livers impression was also estimated. Drugs. One mg of licochalcone A was dissolved in 20 μl of 99% (v/v) ethanol, and then 980 μl of medium 199 was added an the resulting mixture was stored at −20° C. before use.

L. major promastigotes = test: Electron microscopy of L. major promastigotes (Example 11); type: cell-based, Leishmania major; details: for diameter of mitochondria, Maximum (mean) / diameter of mitochondria, Minimum (mean): 24 hours
[4] = system: Staphylococcus aureus ATCC 25923; test: MIC, macrodilution (Example 17); type: cell-based; details: ATCC25923
Strain = H37RV = test: MIC with and without 10% human serum; type: cell-based; details: for MIC: Mycobacterium tuberculosis, H37RV
[5] = read-out: inhibition of lymphocytes (lower figure)
[6] = read-out: percentage inhibition of lymphocyte proliferation response ±SEM
[7] = 3 days after infection, 0.5 μg/ml
[8] = 3 days after infection, 1 μg/ml
[9] = 6 days after infection, 0.5 μg/ml
[10] = 6 days after infection, 1 μg/ml

C=CC(C)(C)c1cc(/C=C/C(=O)c2ccc(O)cc2)c(OC)cc1O [Licochalcone A, licochalcone A]
intracellular amastigotes, electron microscopy ([1]; macrophage + L. major, 10 μg/ml): Most of the intracellular amastigotes were now killed
ultrastructure of macrophage ([1]; 5 μg/ml): No changes compared to the control culture
ultrastructure of macrophage ([1]; 10 μg/ml): No changes compared to the control culture
MIC (Streptococcus pneumonia): 4 µg/mL (≈ 11.8 µM)
inhibition at 0.5 µg/mL (human lymphocytes; [5]): 4.7%
inhibition at 1 µg/mL (human lymphocytes; [5]): 7.7%
inhibition at 5 µg/mL (human lymphocytes; [5]): 20.8%
inhibition at 10 µg/mL (human lymphocytes; [5]): 39.7%
inhibition at 1 µg/mL (human lymphocytes; [6]): 4.7 ± 5.6%
inhibition at 2 µg/mL (human lymphocytes; [6]): 7.8 ± 5.7%
inhibition at 5 µg/mL (human lymphocytes; [6]): 20.8 ± 4.8%
inhibition at 10 µg/mL (human lymphocytes; [6]): 39.7 ± 5.4%
inhibition at 20 µg/mL (human lymphocytes; [6]): 65.3 ± 7%
stability in buffer without N-acetyl-L-cysteine [2]: No similar decrease
reaction with N-acetyl-L-cysteine ([2]; acetonitrile-phosphate buffer pH 7.5 (1:3), ambient temperature): decreased amounts of licochalcone A and appearance of two new peaks
meanMIC (M. intracellular): 50.0 µg/mL
rangeMIC (M. intracellular): 20 to 80 µg/mL
Species with MIC ≦ 20 μg/ml (Mycobacteria): M. kansasii and M. xenophii and M. marinum and M. tuberculosis and M. bovis and BCG
% of amast. [3, 7]: 96.6%
% of infec. cells [3, 7]: 28.0%
amast. per cell [3, 7]: 2.3
proma per cell [3, 7]: 0.1
total amast. [3, 7]: 65.0 ×10^6
total proma. [3, 7]: 2.3 ×10^6
% of amast. [3, 8]: 91.2%
% of infec. cells [3, 8]: 19.0%
amast. per cell [3, 8]: 2.0
proma per cell [3, 8]: 0.2
total amast. [3, 8]: 38.3 ×10^6
total proma. [3, 8]: 3.7 ×10^6
% of infec. cells ([3]; 3 days after infection, 5 μg/ml): 0%
% of infec. cells ([3]; 3 days after infection, 10 μg/ml): 0%
% of amast. [3, 9]: 100%
% of infec. cells [3, 9]: 13.7%
amast. per cell [3, 9]: 3.1
proma per cell [3, 9]: 0
total amast. [3, 9]: 42.0 ×10^6
total proma. [3, 9]: 0 ×10^6
% of amast. [3, 10]: 100%
% of infec. cells [3, 10]: 3.0%
amast. per cell [3, 10]: 1.8
proma per cell [3, 10]: 0
total amast. [3, 10]: 5.3 ×10^6
total proma. [3, 10]: 0 ×10^6
% of infec. cells ([3]; 6 days after infection, 5 μg/ml): 0%
% of infec. cells ([3]; 6 days after infection, 10 μg/ml): 0%
amastigotes findings on the impression smear, Footpad (L. major; 20 μg intralesional): + (parasite amastigotes from 5 fields of microscopical vision < 100)
amastigotes findings on the impression smear, Liver (L. major; 20 μg intralesional): + (parasite amastigotes from 5 fields of microscopical vision < 100)
amastigotes findings on the impression smear, Spleen (L. major; 20 μg intralesional): + (parasite amastigotes from 5 fields of microscopical vision < 100)
parasitic load of the footpad, 3H-thymidine uptake (mean) (L. major; 20 μg intralesional once a day): 243.5 ×10^3 cpm
parasitic load of the liver, 3H-thymidine uptake (mean) (L. major; 20 μg intralesional once a day): 10.8 ×10^3 cpm
amastigotes findings on the impression smear, Footpad (L. major; 50 μg i.p.): + (parasite amastigotes from 5 fields of microscopical vision < 100)
amastigotes findings on the impression smear, Liver (L. major; 50 μg i.p.): −
amastigotes findings on the impression smear, Spleen (L. major; 50 μg i.p.): −
parasitic load of the footpad, 3H-thymidine uptake (mean) (L. major; 50 μg i.p. once a day): 58.0 ×10^3 cpm
parasitic load of the liver, 3H-thymidine uptake (mean) (L. major; 50 μg i.p. once a day): 11.7 ×10^3 cpm
amastigotes findings on the impression smear, Footpad (L. major; 50 μg intralesional): + (parasite amastigotes from 5 fields of microscopical vision < 100)
amastigotes findings on the impression smear, Liver (L. major; 50 μg intralesional): + (parasite amastigotes from 5 fields of microscopical vision < 100)
amastigotes findings on the impression smear, Spleen (L. major; 50 μg intralesional): + (parasite amastigotes from 5 fields of microscopical vision < 100)
parasitic load of the footpad, 3H-thymidine uptake (mean) (L. major; 50 μg intralesional once a day): 282.6 ×10^3 cpm
parasitic load of the liver, 3H-thymidine uptake (mean) (L. major; 50 μg intralesional once a day): 20.8 ×10^3 cpm
amastigotes findings on the impression smear, Footpad (L. major; 100 μg i.p.): + (parasite amastigotes from 5 fields of microscopical vision < 100)
amastigotes findings on the impression smear, Liver (L. major; 100 μg i.p.): −
amastigotes findings on the impression smear, Spleen (L. major; 100 μg i.p.): −
parasitic load of the footpad, 3H-thymidine uptake (mean) (L. major; 100 μg i.p. once a day): 89.0 ×10^3 cpm
parasitic load of the liver, 3H-thymidine uptake (mean) (L. major; 100 μg i.p. once a day): 12.8 ×10^3 cpm
morphological changes of promastigotes (L. major promastigotes; 1 μg/ml): no morphological changes
diameter of mitochondria, Maximum (mean) (L. major promastigotes; 1 μg/ml): 203 nm
diameter of mitochondria, Minimum (mean) (L. major promastigotes; 1 μg/ml): 104 nm
diameter of mitochondria, Maximum (mean) (L. major promastigotes; 5 μg/ml): 548 nm
diameter of mitochondria, Minimum (mean) (L. major promastigotes; 5 μg/ml): 165 nm
percentage of L. major showing cytoplasmic granules (L. major promastigotes; 5 μg/ml, control 50%): 70%
diameter of mitochondria, Maximum (mean) (L. major promastigotes; 10 μg/ml): 1043 nm
diameter of mitochondria, Minimum (mean) (L. major promastigotes; 10 μg/ml): 294 nm
MIC [4]: 18 µg/mL (≈ 53.2 µM)
increase of MIC when supplemented with 10% of serum (Strain = H37RV): 8 fold
MIC (Strain = H37RV; read-out: MIC+serum): 40 µg/mL (≈ 118 µM)
MIC (Strain = H37RV; read-out: MIC−serum): 5 µg/mL (≈ 14.8 µM)
